Assays:
[1] = biological target: aspartyl protease, BACE1 (Homo sapiens, UniProt P56817); assay: effect on BACE1; assay type: biochemical
[2] = system: primary neuronal chromaffin cells; settings: cited from earlier work
[3] = system: APPswe/In mice; assay: Morris water maze test in APPswe/In mice; assay type: in vivo, mouse; settings: Mean + % SEM; for Latency Period: same treatment as APPIn mice
Experimental: (§1) Cathepsin B inhibitors were also evaluated in another transgenic mouse that expressed human APP containing both the Swedish mutant β-secretase and the London γ-secretase site (APPswe/In).
The status of memory impairment in the APPIn or APPswe/In mice with and without administration of select compounds was assessed by the Morris water maze test. The water maze test is widely used in mouse AD animal models to evaluate cognitive impairment in such AD models. Water maze tests were conducted as previously described (87-89).
Drug-treated and vehicle-treated mice were tested in the Morris water maze test. Mice were trained in a 1.2 meter open field water maze. The pool was filled to a depth of 30 cm with water and maintained at 25° C. The escape platform (10 cm square) was placed 1 cm below the surface of the water. During the trials, the platform was removed from the pool. The cued test was carried out in the pool surrounded with white curtains to hide any extra-maze cues. Aβ animals underwent non-spatial pretraining (NSP) for three consecutive days. These trials were to prepare the animals for the final behavioral test to determine whether there was sufficient retention of memory to find the platform. These trials were not recorded since they were for training purposes only. For the training and learning studies, the curtains were removed to extra maze cues to allow identification of animals with swimming impairments. On day 1, the mice were placed on the hidden platform for 20 seconds (trial 1), for trials 2-3 animals were released in the water at a distance of 10 cm from the cued-platform or hidden platform (trial 4) and allowed to swim to the platform. On the second day of trails, the hidden platform was moved randomly between the center of the pool and the center of each quadrant. The animals were released into the pool, randomly facing the wall and were allowed 60 seconds to reach the platform (3 trials). In the third trial, animals were given three trials, two with a hidden platform and one with a cued platform. Two days following the NSP, the animals were subjected to final behavioral trials (Morris water maze test). For these trials (3 per animal), the platform was placed in the center of one quadrant of the pool and the animals were released facing the wall in a random fashion. Each animal was allowed to find the platform or swim for 60 seconds (latency period, the time it takes to find the platform). Aβ animals were tested within 4-6 hours of dosing and were randomly selected for testing by an operator blinded to the test group.

[4] = system: transgenic APPIn mice (London mutant human APP); assay: brain Aβ and amyloid plaque load in transgenic APPIn mice; assay type: in vivo, mouse; settings: icv 0.015 mg/kg/day, 28 days; for reduction of amyloid plaque load: cortex
Experimental: Transgenic mice expressing human APP containing the London mutation (APPIn) mimic AD function and pathology in that they are cognitively deficient, have brain amyloid plaque and elevated Aβ (8). […] CA074Me or E64d were administered by icy infusion in brains (0.015 mg/kg/day) for 28 days (8 animals per treatment group).
APPIn mice express the clinical mutant human APP (APP[V717I]) which has a mutation at the γ-secretase site that results in the overproduction of Aβ and the behavioral and neuropathology that develop an AD phenotype (8). These mice show early stage deficits in cognition and memory at 3-9 months age. At the later age of 8-12 months, amyloid plaques have developed in brains of these mice, with increased levels of Aβ40 and Aβ42 peptides in the brain. […] Thus, this AD mouse model allows testing of select reversible compounds to improve cognition and to reduce brain levels of Aβ peptides and amyloid plaques.
(§2) Direct icy infusion into the brain was the first route of administration to be tested to establish the effectiveness of reversible inhibitors in the brain to provide cognitive improvement, and reduction in brain Aβ peptides and amyloid plaques. Icy infusion was performed as described above for the irreversible inhibitors with use of the Alzet minipump. The initial dose utilized was the same dosage used for E64d and CA074Me in the APPIn mice or APPswe/In mice Administration of these compounds began at approximately 1-2 months of age and infusion was conducted for periods of 1, 2, 4, and 8 months (or other time periods). Administration of the select reversible compounds by direct icy infusion into mouse brains was conducted initially at 0.025 μl/hr of 1 mg/ml, other doses may be examined based on results with the first dose. Each time point was conducted with about 8-10 animals and 8-10 normal control animals (age-matched) (or greater number of mice per treatment group, if necessary, for appropriate statistical evaluation). At the end of each of these infusion periods, cognitive testing and assessment of Aβ peptide levels with plaque pathology was evaluated. At each of these time points, mice were tested for cognition, and then sacrificed for evaluation of Aβ and neuropathology in the brain
(§3) After behavioral testing was completed, the mice were sacrificed for analyses of Aβ40 and Aβ42 peptide levels, and neuropathology. One half brain (one hemisphere) was utilized to prepare brain extracts for measurement of Aβ40 and Aβ42 levels by ELISA assays, and the other half brain was used for neuropathological evaluation. Procedures for preparation of brain extracts and ELISA assays for Aβ peptides are those used for analyses of guinea pig brains
(§4) Aβ-related neuropathology was assessed in cortex and hippocampus of brains. The relative extent of Aβ immunoreactivity in neurons and glial cells was assessed. Immunostaining for Aβ was conducted as described previously (58) Aβ-related neuropathology was assessed in cortex and hippocampus of brains, as well as other regions of the brain as controls. Brain tissue was fixed in 4% paraformaldehyde overnight, and then processed to paraffin. Serial sections were obtained, deparaffinized and washed in TBS buffer. Each section was blocked with appropriate normal serum (mouse or rabbit), and subjected to primary anti-Aβ antibody for detection of amyloid deposits. Sections were then stained with DAB ([…]) with the Vector ABC Elite kit (Vector Laboratories). Amyloid areas were imaged with microscopic computer-assisted analysis system using the NIH Image Analysis Software.

[5] = system: APPswe/In mice; assay: amyloid load, Aβ, CTFβ and sAPPα in APPswe/In mice; assay type: in vivo, mouse; settings: Mean + % SEM
Experimental: as §1
The mouse model of AD expressing human APP containing the Swe mutant β-secretase site and the London mutation (APPswe/In) also overproduce Aβ, and develop neuropathology and behavior that mimic AD. APPswe/In was generated by site-directed mutagenesis at the β-secretase site of the APPIn to convert Lys-Met to the mutant Asn-Leu. Both APPswe/In and APPIn mouse strains were created in a C57BL/6 mouse background using the Thy-1.2 expression cassette driven by the Thy-1 promoter containing an SV40 polyadenylation site. The APPswe/In mice differ from the APPIn in that APPswe/In mice contain the Swedish mutant β-secretase site rather than the wt β-secretase site found in APPIn.
as §2, §3, §4

[6] = system: muscular dystrophy; settings: Phase I through III trials, Japan; cited from earlier work

aspartyl protease, BACE1, sequence (P56817 46-501): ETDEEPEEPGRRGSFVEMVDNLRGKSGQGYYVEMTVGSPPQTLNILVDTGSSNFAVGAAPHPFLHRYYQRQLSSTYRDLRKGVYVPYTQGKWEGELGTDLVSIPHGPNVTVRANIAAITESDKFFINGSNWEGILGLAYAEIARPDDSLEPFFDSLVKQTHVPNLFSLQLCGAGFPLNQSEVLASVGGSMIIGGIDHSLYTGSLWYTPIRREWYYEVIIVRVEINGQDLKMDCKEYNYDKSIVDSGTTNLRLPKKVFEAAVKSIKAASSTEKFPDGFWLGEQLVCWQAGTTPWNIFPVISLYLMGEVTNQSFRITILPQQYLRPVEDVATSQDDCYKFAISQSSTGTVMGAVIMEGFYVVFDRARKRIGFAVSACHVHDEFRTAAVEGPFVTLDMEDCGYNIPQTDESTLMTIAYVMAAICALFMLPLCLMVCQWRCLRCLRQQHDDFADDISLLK

| Compound | effect on BACE1 [1] | CTFβ production in primary chromaffin cell cultures [2] | Distance Traveled [3] | Latency Period [3] | decrease in brain Aβ40 [4] [%] | decrease in brain Aβ42 [4] [%] | reduction of amyloid plaque load [4] | Amyloid load [5] | Aβ40 [5] | Aβ42 [5] | CTFβ [5] | sAPPα [5] | efficacy in muscular dystrophy [6] |
| --- | --- | --- | --- | --- | --- | --- | --- | --- | --- | --- | --- | --- | --- |
| CCCNC(=O)[C@H]1O[C@@H]1C(=O)N[C@H](C(=O)N1CCC[C@H]1C(=O)OC)[C@@H](C)CC [CA074Me] | do not affect | reduced CTFβ production | 246 + 13% | 37 + 12% | 50 | 50 | significantly reduce amyloid load | 1.07 + 4% | 91 + 4% | 97 + 3% | 97 + 3% | 101 + 4% | – |
| CCOC(=O)[C@H]1O[C@@H]1C(=O)N[C@@H](CC(C)C)C(=O)NCCC(C)C [E64d] | do not affect | – | 270 + 12% | 40 + 10% | 50 | 50 | significantly reduce amyloid load | 1.06 + 4% | 92 + 7% | 101 + 3% | 100 + 3% | 98 + 3% | lack of efficacy |
